Data reported in patent publication US11220482B2, “Aminopyridinemethanol compounds and their use” (UNIVERSITE AMIENS PICARDIE JULES VERNE, priority 2017, dated 2022).
Where two headings read alike, the source gives them in different places.

What was measured:
[1] = test system: Plasmodium falciparum 3D7; test: Plasmodium falciparum susceptibility assay, first round (SYBR Green I); assay type: cell-based; conditions: 3D7, first round, 48-h incubation, strain susceptible to CQ, decreased susceptibility to MQ, read-out: IC50 (nM) Plasmodium falciparum 3D7 (converted)
[2] = test system: Plasmodium falciparum W2; test: as above; assay type: cell-based; conditions: W2, first round, 48-h incubation, strain resistant to CQ, sensitive to MQ, read-out: IC50 (nM) Plasmodium falciparum W2 (converted)
[3] = test system: CHO-K1 cells; test: In vitro micronucleus assay, short-term exposure
Experimental: All the assays were conducted in duplicate. The CHO-K1 cells, suspended in McCoy's 5A medium, were transferred into Labteck wells at a concentration of 100,000 cells/mL, and incubated for 24 hours at 37° C. in CO2 (5%).
When the test was performed without metabolic activation, the test substances were added into cell cultures at concentrations previously defined.
When the assay was performed in the presence of metabolic activation, S9 mix metabolizing mixture was added to cell cultures at a concentration of 10%. Then the test substances were added to the cell cultures at concentrations previously defined.
After 3 hours of incubation at 37° C. in CO2 (5%), the culture medium was removed, the cells were rinsed with phosphate buffered saline (PBS), and then returned to culture in McCoy's 5A medium containing […] of cytochalasin B. After a 21-hour incubation period at 37° C., cells were rinsed with phosphate buffered saline (PBS), fixed with methanol and stained with 10% Giemsa for 20 minutes.
(§1) The analysis of results was performed under a microscope at ×1000 magnification. The antiproliferative activity of test substances was estimated by counting the number of binucleated cells relative to the number of mononucleated cells on a total of 500 cells for each dose (250 cells counted per well). The proliferation index (Cytokinesis Blocked Proliferative Index CBPI) was calculated using the following formula:
(§2) The cytostasis index (CI %), i.e. the percentage of cell replication inhibition, was calculated using the following formula: CI %−100−{100×(CBPItest material−1)/(CBPIsolvent control−1)}
(§3) The rates of micronuclei were evaluated for the presence of independent nuclear core entities in 1000 binucleated cells per well, which corresponds to 2000 cells examined by test substance dose. Micronuclei were identified as small nuclei well differentiated from cell nucleus, stained in the same manner and having a diameter less than one third of that of the cell nucleus.
(§4) Micronuclei rates obtained for different doses of test substances were compared to the negative control by a χ2 test. The assay was considered positive if: • A dose-response relationship was obtained between the rate of micronuclei and the doses tested, • At least one of these doses induced a statistically significant increase (P<0.05) in the number of micronucleated cells as compared to the negative control.

[4] = test system: CHO-K1 cells; conditions: Chinese hamster, 24 h
Experimental: All the assays were conducted in duplicate. The CHO-K1 cells, suspended in Mac Coy's 5A medium, were transferred into Labteck wells at a concentration of 100,000 cells/mL, and incubated for 24 hours at 37° C. in CO2 (5%).
The test was performed without metabolic activation: the test substances were added into cell cultures at concentrations previously defined. […] After 24 hours of incubation at 37° C. in CO2 (5%), the culture medium was removed, the cells were rinsed with phosphate buffered saline (PBS), and then returned in culture medium containing […] of cytochalasine B. After a 24-hour incubation period at 37° C., cells were rinsed with phosphate buffered saline (PBS), fixed with methanol and stained with 10% Giemsa for 20 minutes.
as §1, §2, §3, §4

[5] = test system: Salmonella strains; test: Bacterial reverse mutation assay (Ames test), overall conclusion; assay type: cell-based, S. typhimurium; conditions: all tested doses, absence or presence of the metabolizing mixture
Experimental: Five strains of S. typhimurium were used. […] An additional strain has been chosen to detect cross-linking mutagens, hydrazines and oxidative agents: TA102, which have an AT base pair at the primary reversion site. Salmonella tester strains were gifts from Prof. B. N. Ames (Berkeley, Calif., USA). They were stored at −80° C. and regularly checked for genetic markers.
Few crystals of the frozen working strains were taken with a sterile pipette, and seeded in 10 mL of nutrient broth (NB No 2, Oxoid). Strains were grown overnight at 37° C. with shaking in Nutrient Broth No. 2, with ampicillin (25 μg/mL) for TA1535, TA97a, TA98, and TA 100, or ampicillin (25 μg/mL) plus tetracyclin (2 μg/mL) for TA 102. At the end of the incubation period, 0.1 mL of each overnight culture was mixed to 0.1 mL S9 Mix or 0.1 mL phosphate-buffered saline (PBS, pH 7.4) in 5 mL plastic tubes and various volumes of the tested samples were added to the mixtures. Each experiment included triplicate plates of four tested doses. A solvent (DMSO, 10 μL) control was added to determine the spontaneous frequency of revertants (quadruple plates). Five positive controls were also included to ensure the performance of the tester strains and the S9 Mix. […] After hardening, the plates were incubated at 37° C. for 48 hours.
At the end of the incubation period, revertants were counted with a laser colony counter equipped with a bacterial enumeration program (Spiral System Instrument Inc., Bethesda, Md., USA).
The Dunnett test was performed to determine a significant difference between the mean number of induced revertants and the mean number of spontaneous revertants.

[6] = test system: S. typhimurium TA1535
[7] = test system: S. typhimurium TA97a
[8] = test system: S. typhimurium TA100
[9] = test system: S. typhimurium TA102
[10] = test system: S. typhimurium TA98; test: Bacterial reverse mutation assay (Ames test)

COC[C@H](Cc1ccccc1)NC[C@@H](O)c1cc(-c2ccc(C(F)(F)F)cc2)nc(C(F)(F)F)c1 [Compound 1i, (S)-2-(((S)-1-Methoxy-3-phenylpropan-2-yl)amino)-1-(2-(trifluoromethyl)-6-(4-(trifluoromethyl)phenyl)pyridin-4-yl)ethanol]
IC50 [1]: 28.3 ± 1.5 nM | IC50 [2]: 28.8 ± 3.8 nM | in vitro micronucleus assay result (clastogenic and/or aneugenic activities) [3]: negative results | BI (binucleated cells) ([4]; 5 μM): 402 | CBPI (Cytokinesis-Blocked Proliferative Index) ([4]; 5 μM): 1.81 | CI % (cytostasis index) ([4]; 5 μM): 13% | MNC1 (micronucleated cell rate) ([4]; 5 μM): 9 ‰ | MNC2 (micronucleated cell rate) ([4]; 5 μM): 11 ‰ | MNC-M (mean of micronucleated cell rates) ([4]; 5 μM): 10 ± 1.4 ‰ | MONO (mononucleated cells) ([4]; 5 μM): 98 | BI (binucleated cells) ([4]; 10 μM): 308 | CBPI (Cytokinesis-Blocked Proliferative Index) ([4]; 10 μM): 1.62 | CI % (cytostasis index) ([4]; 10 μM): 34% | MNC1 (micronucleated cell rate) ([4]; 10 μM): 10 ‰ | MNC2 (micronucleated cell rate) ([4]; 10 μM): 12 ‰ | MNC-M (mean of micronucleated cell rates) ([4]; 10 μM): 11 ± 1.4 ‰ | MONO (mononucleated cells) ([4]; 10 μM): 192 | BI (binucleated cells) ([4]; 50 μM): 214 | CBPI (Cytokinesis-Blocked Proliferative Index) ([4]; 50 μM): 1.42 | CI % (cytostasis index) ([4]; 50 μM): 57% | MNC1 (micronucleated cell rate) ([4]; 50 μM): 11 ‰ | MNC2 (micronucleated cell rate) ([4]; 50 μM): 9 ‰ | MNC-M (mean of micronucleated cell rates) ([4]; 50 μM): 10 ± 1.4 ‰ | MONO (mononucleated cells) ([4]; 50 μM): 286 | mutagenic activity in Salmonella strains (revertant rates) [5]: No significant increase in revertant rates | Number of revertants by plate (Means ± SD), TA1535 ([6]; with S9 mix, 0.4 μg/plate): 23 ± 6^NS | Number of revertants by plate (Means ± SD), TA1535 ([6]; with S9 mix, 0.6 μg/plate): 29 ± 4^NS | Number of revertants by plate (Means ± SD), TA1535 ([6]; with S9 mix, 0.8 μg/plate): 27 ± 5^NS | Number of revertants by plate (Means ± SD), TA1535 ([6]; with S9 mix, 1 μg/plate): 29 ± 9^NS | Number of revertants by plate (Means ± SD), TA1535 ([6]; without S9 mix, 0.4 μg/plate): 22 ± 4^NS | Number of revertants by plate (Means ± SD), TA1535 ([6]; without S9 mix, 0.6 μg/plate): 29 ± 6^NS | Number of revertants by plate (Means ± SD), TA1535 ([6]; without S9 mix, 0.8 μg/plate): 28 ± 5^NS | Number of revertants by plate (Means ± SD), TA1535 ([6]; without S9 mix, 1 μg/plate): 20 ± 4^NS | Number of revertants by plate (Means ± SD), TA97a ([7]; with S9 mix, 0.4 μg/plate): 132 ± 11^NS | Number of revertants by plate (Means ± SD), TA97a ([7]; with S9 mix, 0.6 μg/plate): 137 ± 2^NS | Number of revertants by plate (Means ± SD), TA97a ([7]; with S9 mix, 0.8 μg/plate): 127 ± 9^NS | Number of revertants by plate (Means ± SD), TA97a ([7]; with S9 mix, 1 μg/plate): 124 ± 4^NS | Number of revertants by plate (Means ± SD), TA97a ([7]; without S9 mix, 0.4 μg/plate): 153 ± 5^NS | Number of revertants by plate (Means ± SD), TA97a ([7]; without S9 mix, 0.6 μg/plate): 163 ± 4^NS | Number of revertants by plate (Means ± SD), TA97a ([7]; without S9 mix, 0.8 μg/plate): 164 ± 5^NS | Number of revertants by plate (Means ± SD), TA97a ([7]; without S9 mix, 1 μg/plate): 144 ± 11^NS | Number of revertants by plate (Means ± SD), TA100 ([8]; with S9 mix, 0.4 μg/plate): 191 ± 11^NS | Number of revertants by plate (Means ± SD), TA100 ([8]; with S9 mix, 0.6 μg/plate): 173 ± 10^NS | Number of revertants by plate (Means ± SD), TA100 ([8]; with S9 mix, 0.8 μg/plate): 182 ± 10^NS | Number of revertants by plate (Means ± SD), TA100 ([8]; with S9 mix, 1 μg/plate): 174 ± 10^NS | Number of revertants by plate (Means ± SD), TA100 ([8]; without S9 mix, 0.4 μg/plate): 200 ± 7^NS | Number of revertants by plate (Means ± SD), TA100 ([8]; without S9 mix, 0.6 μg/plate): 199 ± 10^NS | Number of revertants by plate (Means ± SD), TA100 ([8]; without S9 mix, 0.8 μg/plate): 209 ± 17^NS | Number of revertants by plate (Means ± SD), TA100 ([8]; without S9 mix, 1 μg/plate): 205 ± 21^NS | Number of revertants by plate (Means ± SD), TA102 ([9]; with S9 mix, 0.4 μg/plate): 351 ± 6^NS | Number of revertants by plate (Means ± SD), TA102 ([9]; with S9 mix, 0.6 μg/plate): 355 ± 16^NS | Number of revertants by plate (Means ± SD), TA102 ([9]; with S9 mix, 0.8 μg/plate): 376 ± 10^NS | Number of revertants by plate (Means ± SD), TA102 ([9]; with S9 mix, 1 μg/plate): 362 ± 4^NS | Number of revertants by plate (Means ± SD), TA102 ([9]; without S9 mix, 0.4 μg/plate): 332 ± 19^NS | Number of revertants by plate (Means ± SD), TA102 ([9]; without S9 mix, 0.6 μg/plate): 293 ± 4^NS | Number of revertants by plate (Means ± SD), TA102 ([9]; without S9 mix, 0.8 μg/plate): 328 ± 14^NS | Number of revertants by plate (Means ± SD), TA102 ([9]; without S9 mix, 1 μg/plate): 347 ± 11^NS | Number of revertants by plate (Means ± SD), TA98 ([10]; with S9 mix, 0.4 μg/plate): 24 ± 2^NS | Number of revertants by plate (Means ± SD), TA98 ([10]; with S9 mix, 0.6 μg/plate): 18 ± 3^NS | Number of revertants by plate (Means ± SD), TA98 ([10]; with S9 mix, 0.8 μg/plate): 17 ± 1^NS | Number of revertants by plate (Means ± SD), TA98 ([10]; with S9 mix, 1 μg/plate): 20 ± 2^NS | Number of revertants by plate (Means ± SD), TA98 ([10]; without S9 mix, 0.4 μg/plate): 32 ± 3^NS | Number of revertants by plate (Means ± SD), TA98 ([10]; without S9 mix, 0.6 μg/plate): 33 ± 3^NS | Number of revertants by plate (Means ± SD), TA98 ([10]; without S9 mix, 0.8 μg/plate): 33 ± 3^NS | Number of revertants by plate (Means ± SD), TA98 ([10]; without S9 mix, 1 μg/plate): 34 ± 7^NS
